Assay results reported in patent US5968514A (priority 1994, dated 1999).
Where “and” joins values, the source holds several entries; their conditions need not be identical. Identical values can stand only once. Entries after “also recorded” stand apart in the source; their conditions may differ. Like-named read-outs stand apart in the source and are kept apart here. Ends that are not written are not given here.

How the values were obtained:
[1] = test system: class II MHC molecules on Raji cells; format: binding, human
[2] = test system: human peripheral mononuclear cells; format: cell-based
[3] = test system: class II MHC molecules on Raji cells; format: binding, human; remark: listed apart in the source
[4] = test system: class II MHC molecules (I-A^d and I-E^d) on A20 cells; format: binding, mouse
[5] = test system: class II MHC molecules on A20 cells; format: binding, mouse; conditions: for IC50: read-out: concentration reducing 125I-MMTV ORF(76-119) binding to A20 cells by 50%
[6] = test system: class II-negative L cells; format: binding
[7] = biological target: I-Aβ^b (60-90) peptide of class II MHC β-chain (Mus musculus, UniProt P14483); format: binding, murine
I-Aβ^b (60-90) peptide of class II MHC β-chain, sequence (P14483 87-117): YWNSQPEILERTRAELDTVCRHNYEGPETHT

[8] = test system: human PMNC, APC and T cell fractions; format: cell-based
Whole PMNC = format: cell-based, human

Which IC50 ([1]; read-out: concentration reducing 125I-HIV-1 Nef(123-160) binding to Raji cells by 50%) does the source give for “HIV-1 Nef(123-160): SEQ ID NO. 18 DWQNYTPGPGVRYPLTFGWCYKLVPVEPDKVEEANKGE” here?
The IC50 was 30 µM.

What about the “SI ± sd, cells cultured with Anti-IgM + peptide” value ([2]; 96 h) of the same substance?
Its value is 14.1 ± 0.5.

And the “SI ± sd, cells cultured with ConA + peptide” value ([2]; 96 h)?
Its value is 4.5 ± 0.4.

“HIV-1 Nef(31-65): SEQ ID NO. 15 GAASRDLEKHGAITSSNTAATNAACAWLEAQEEEE” was tested. Which “reduction of 125I-SEA binding to Raji cells” value [3] did it give?
The value was “slight inhibitory effects; also recorded: slightly reduced”.

How did the “reduction of 125I-SEA binding to Raji cells” value [3] turn out when “HIV-1 Nef(1-38): SEQ ID NO. 14 MGGKWSKSSVVGWPTVRERMRRAEPAADGVGAASRDLE” was run?
Its value is “slight inhibitory effects; also recorded: slightly reduced”.

What does the source list for “MMTV ORF(76-119): SEQ ID NO. 1 DSFNNSSVQDYNLNDSENSTFLLGQGPQPTSSYKPHRLCPSEIE”?
reduction of 125I-SEA binding to A20 cells [4]: approximately 63%; IC50 ([4]; read-out: concentration reducing 125I-SEA binding to A20 cells by 50%): 20 µM and ~20 µM; direct binding of 125I-labelled peptide to A20 cells [5]: did bind; IC50 [5]: 25 µM; binding of MMTV ORF(76-119) to class II-negative L cell line in comparison to A20 cells [6]: insignificant; competition with 125I-SEA and 125I-MMTV ORF(76-119) for binding to I-Aβ^b (60-90) peptide [7]: competed

With Toxic shock syndrome toxin-1 [TSST-1] as the substance, how does the “competition with 125I-MMTV ORF(76-119) for binding to A20 cells (in words)” value (“competition … (in words)” below) [5] read?
The value was “did not compete”.

With staphylococcal enterotoxin A [SEA] as the substance, how does the “effectiveness as competitor of 125I-SEA binding relative to MMTV ORF(76-119)” value [4] read?
Its value is 20 times.

And the “competition … (in words)” value [5]?
The value was “a more potent competitor”.

What about the IC50 [5] of the same substance?
The IC50 was 1.8 µM.

And the “competition with 125I-SEA and 125I-MMTV ORF(76-119) for binding to I-Aβ^b (60-90) peptide” value [7]?
Its value is “competed”.

What about the IC50 ([3]; read-out: concentration reducing 125I-SEA binding to Raji cells by 50%) of the same substance?
Its IC50 is 0.2 µM.

What about the “inhibition of 125I-HIV-1 Nef(123-160) binding to Raji cells (in words)” value [1] of the same substance?
Its value is “binding as well as SEE, but it was more effective than SEC1 or SEB”.

What about the “SI ± sd, stimulus alone” value [2] of the same substance?
The value was 17.6 ± 3.3.

What about the “SI ± sd, APC” value [8] of the same substance?
Its value is 1.6 ± 0.2.

And the “ratio of the stimulation index for whole PMNC versus reconstituted APC/T cells” value [8]?
The value was about 6.78.

What about the “IFNγ at 24 H” value (Whole PMNC) of the same substance?
The value was 55 ± 7.

And the “IFNγ at 48 h” value (Whole PMNC)?
The value was 550 ± 141.

What about the “IFNγ at 72 h” value (Whole PMNC) of the same substance?
Its value is 3000.

What about the “IFNγ at 96 h” value (Whole PMNC) of the same substance?
Its value is 2000.

For concanavalin A [ConA], which “SI ± sd, stimulus alone” value [2] is on record?
The value was 6.0 ± 0.4.

And the “SI ± sd, APC” value [8]?
Its value is 0.9 ± 0.1.

And the “SI ± sd, APC + T cells” value [8]?
The value was 40.7 ± 4.3.

And the “IFNγ at 24 H” value (Whole PMNC)?
Its value is 10.

And the “IFNγ at 48 h” value (Whole PMNC)?
The value was 350 ± 71.

And the “IFNγ at 72 h” value (Whole PMNC)?
Its value is 400 ± 141.

And the “IFNγ at 96 h” value (Whole PMNC)?
Its value is 150 ± 71.

And the “level of IFNγ production (comparison in words)” value (Whole PMNC)?
Its value is “levels much lower than that of Nef or SEA”.

“NKGENTSLLHPVSLHGMDDPEREVLEWRFD [HIV-1 Nef(156-186)]” was tested. Which “SI ± sd, cells cultured with ConA + peptide” value [2] did it give?
The value was 5.2 ± 1.6.

With staphylococcal enterotoxin B [SEB] as the substance, how does the “competition … (in words)” value [5] read?
Its value is “competed less effectively than SEA”.

What about the “inhibition of 125I-HIV-1 Nef(123-160) binding to Raji cells (in words)” value [1] of the same substance?
Its value is “it was more effective than SEC1 or SEB”.
